Data published in the supplement of paper PMC10307832.

What was measured:
Assay in all cases: relative viability (nuclei count vs DMSO), 5 days (fraction); higher = more cells survive
CX-5461 + Bortezomib = compound: Cc1cnc(CNC(=O)c2c(=O)c3ccc(N4CCCN(C)CC4)nc3n3c2sc2ccccc23)cn1 [CX-5461] + CC(C)C[C@H](NC(=O)[C@H](Cc1ccccc1)NC(=O)c1cnccn1)B(O)O [Bortezomib] (partner 0.002 µM)
How it was run: (§1)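 Lung cancer cell lines, seeded in 1536-well plates, were treated the following day by pin tool with a single drug or with five library-drug doses (not always all listed) in √10 steps on top of a fixed anchor-drug dose. Cells were fixed and nuclei stained in one step after 5 days, and nuclei were counted. Relative viability is the nuclei count for treated wells divided by that for vehicle wells, reported as medians of duplicate plates.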

CX-5461 + Pictilisib = compound: Cc1cnc(CNC(=O)c2c(=O)c3ccc(N4CCCN(C)CC4)nc3n3c2sc2ccccc23)cn1 [CX-5461] + CS(=O)(=O)N1CCN(Cc2cc3nc(-c4cccc5[nH]ncc45)nc(N4CCOCC4)c3s2)CC1 [Pictilisib] (partner 1 µM)
How it was run: as §1

CX-5461 + Olaparib = compound: Cc1cnc(CNC(=O)c2c(=O)c3ccc(N4CCCN(C)CC4)nc3n3c2sc2ccccc23)cn1 [CX-5461] + O=C(c1cc(Cc2n[nH]c(=O)c3ccccc23)ccc1F)N1CCN(C(=O)C2CC2)CC1 [Olaparib] (partner 8 µM)
How it was run: as §1

IMD-0354 + Dasatinib = compound: O=C(Nc1cc(C(F)(F)F)cc(C(F)(F)F)c1)c1cc(Cl)ccc1O [IMD-0354] + Cc1nc(Nc2ncc(C(=O)Nc3c(C)cccc3Cl)s2)cc(N2CCN(CCO)CC2)n1 [Dasatinib] (partner 0.075 µM)
How it was run: as §1

Cell Line	relative viability (CX-5461 + Bortezomib; first compound 0.01 µM)	relative viability (CX-5461 + Bortezomib; first compound 0.03162 µM)	relative viability (CX-5461 + Bortezomib; first compound 0.1 µM)	relative viability (CX-5461 + Bortezomib; first compound 0.3162 µM)	relative viability (CX-5461 + Bortezomib; first compound 1 µM)	relative viability (CX-5461 + Pictilisib; first compound 0.01 µM)	relative viability (CX-5461 + Pictilisib; first compound 0.03162 µM)	relative viability (CX-5461 + Pictilisib; first compound 0.1 µM)	relative viability (CX-5461 + Pictilisib; first compound 0.3162 µM)	relative viability (CX-5461 + Pictilisib; first compound 1 µM)	relative viability (CX-5461 + Olaparib; first compound 0.01 µM)	relative viability (CX-5461 + Olaparib; first compound 0.03162 µM)	relative viability (CX-5461 + Olaparib; first compound 0.1 µM)	relative viability (CX-5461 + Olaparib; first compound 0.3162 µM)	relative viability (CX-5461 + Olaparib; first compound 1 µM)	relative viability (IMD-0354 + Dasatinib; first compound 0.04 µM)	relative viability (IMD-0354 + Dasatinib; first compound 0.1265 µM)	relative viability (IMD-0354 + Dasatinib; first compound 0.4 µM)	relative viability (IMD-0354 + Dasatinib; first compound 1.265 µM)	relative viability (IMD-0354 + Dasatinib; first compound 4 µM)
201T	1.16	1.15	1.08	1.14	1.05	0.713	0.748	0.753	0.708	0.721	0.888	0.841	0.856	0.84	0.793	0.625	0.586	0.479	0.283	0.346
A549						0.555	0.525		0.472	0.0627	0.487	0.418	0.31	0.0579	0.0629					
A-427	0.999	1.04	0.98		0.912	0.78	0.868	0.732		0.584	0.802	0.772	0.626	0.247	0.465	0.813	0.772	0.346	0.112	0.137
ABC-1	0.297	0.282		0.206	0.313	0.792	1		0.289	0.573	0.798		1.04	0.594	0.517	0.67	0.673	0.279	0.165	0.228
BEN	1.07	0.665	1.02	0.672	0.597	0.662	0.573	0.6	0.543	0.534	1.12	1.06	1.2	1.02	0.737	0.319	0.315	0.246	0.227	0.165
CAL-12T	0.941	0.92	0.909	1.17	0.831	0.384	0.386	0.331	0.33	0.449	0.732	0.747	0.699	0.634	0.508	0.356	0.387	0.255	0.0944	0.146
COR-L23	0.831	1.05	0.813	1.04	0.474	0.811	1.15	0.656	0.65	0.443	0.36	0.338	0.299	0.3	0.185	0.426	0.475	0.37	0.0763	0.201
COR-L 105	0.841	0.701	0.492	0.385	0.416	0.425	0.461	0.352	0.281	0.333	0.658	0.654	0.718	0.675	0.447	0.401	0.316	0.283	0.246	0.197
Calu-6	1.16	1.06	0.907	1.12	0.382	1	1.04	0.817	0.845	0.409	0.523	0.546	0.482	0.543	0.253					
ChaGo-K-1	1.14	0.968	0.647	0.414	0.449	0.938	0.658	0.564	0.35	0.395	0.381	0.403	0.433	0.442	0.378	0.635	0.59	0.434	0.2	0.237
EBC-1	0.591	0.619	0.466	0.49	0.423	0.375	0.344	0.331	0.362	0.224	0.684	0.701	0.595	0.706	0.579					
EKVX	1.29	1.04	1.01		0.838	0.47	0.447	0.429		0.389	0.931	0.901	0.983		0.73	0.32	0.505	0.445	0.409	0.272
EMC-BAC-2	1.14	1.13	1.04	1.06	0.746	0.555	0.565	0.562	0.414	0.353	0.452	0.476	0.383	0.343	0.324	0.313	0.313	0.235	0.19	0.218
EPLC-272H	0.93	0.975	0.765		0.814	0.306	0.353	0.339		0.335	0.712	0.871	0.785	0.74	0.493	0.511	0.279	0.353	0.121	0.0731
H3255	0.878	0.791	0.775	0.464	0.789	0.489	0.554	0.469	0.347	0.422	0.558	0.543	0.578	0.531	0.497	0.303	0.348	0.264	0.235	0.282
HARA	1.01	1.28	1.13	1.06	0.809	0.634	0.559	0.37	0.497	0.267	0.82	0.67	0.793	0.876	0.556	0.324	0.253	0.185	0.103	0.0678
HCC-15	1.04	1.16	1.02	1.03	0.731	0.753	0.933	0.749	0.239	0.495	0.607	0.721	0.625	0.693	0.538	0.613	0.571	0.375	0.094	0.164
HCC-44	0.898	0.973	0.844	0.838	0.807	0.584	0.877	0.492	0.644	0.43	0.966	1.04	1.03	1	1.01					
HCC-78	0.434	0.485	0.548	0.498	0.428	0.187	0.194	0.172	0.252	0.212	0.977	0.856	0.949	0.816	0.738	0.429	0.466	0.294	0.275	0.232
HCC-366	1.08	1.18	1.06	1.04	0.114	0.133	0.142	0.142	0.0964	0.162	0.444	0.444	0.429	0.315	0.273	0.681	0.792	0.382	0.221	0.0518

Cell Line	relative viability (CX-5461 + Bortezomib; first compound 0.01 µM)	relative viability (CX-5461 + Bortezomib; first compound 0.03162 µM)	relative viability (CX-5461 + Bortezomib; first compound 0.1 µM)	relative viability (CX-5461 + Bortezomib; first compound 0.3162 µM)	relative viability (CX-5461 + Bortezomib; first compound 1 µM)	relative viability (CX-5461 + Pictilisib; first compound 0.01 µM)	relative viability (CX-5461 + Pictilisib; first compound 0.03162 µM)	relative viability (CX-5461 + Pictilisib; first compound 0.1 µM)	relative viability (CX-5461 + Pictilisib; first compound 0.3162 µM)	relative viability (CX-5461 + Pictilisib; first compound 1 µM)	relative viability (CX-5461 + Olaparib; first compound 0.01 µM)	relative viability (CX-5461 + Olaparib; first compound 0.03162 µM)	relative viability (CX-5461 + Olaparib; first compound 0.1 µM)	relative viability (CX-5461 + Olaparib; first compound 0.3162 µM)	relative viability (CX-5461 + Olaparib; first compound 1 µM)	relative viability (IMD-0354 + Dasatinib; first compound 0.04 µM)	relative viability (IMD-0354 + Dasatinib; first compound 0.1265 µM)	relative viability (IMD-0354 + Dasatinib; first compound 0.4 µM)	relative viability (IMD-0354 + Dasatinib; first compound 1.265 µM)	relative viability (IMD-0354 + Dasatinib; first compound 4 µM)
HCC-827	1.01	1.06	1.02	1.06	0.997	1.16	0.912	1	0.87	1.12	0.703	0.69	0.767	0.644	0.611	0.357	0.301	0.348	0.235	0.248
HOP-62	0.726	0.84	0.896	0.909	0.424	0.592	1.16	0.727	0.167	0.623	0.315	0.355	0.287		0.254	0.629	0.637	0.441	0.213	0.164
IA-LM	0.785	0.795	0.734	0.877	0.355	0.337	0.327	0.254	0.33	0.207	0.838	0.83	0.807	0.753	0.444					
LC-2-ad	0.967	1.09	1.06	1.06	0.638	0.431	0.51	0.516	0.502	0.334	0.643	0.694	0.689	0.667	0.617	0.644	0.486	0.253	0.146	0.126
LCLC-97TM1	0.69	0.34	0.457		0.119	0.179	0.172	0.188		0.204	0.313	0.503	0.466	0.333	0.298	0.881	0.77	0.386	0.238	0.145
LK-2							0.623	0.652		0.492	0.664	0.957	0.918		0.497	0.291	0.288	0.309	0.224	0.22
NCI-H358						0.29	0.323	0.249	0.19	0.316	0.676	0.616	0.575	0.494	0.266	0.148	0.193	0.139	0.103	0.0831
NCI-H522											0.647	0.645	0.664		0.664	0.845	0.904	0.556	0.573	0.404
NCI-H1299	1	0.981	1.05	1.04	0.979	0.842		0.768	0.799	0.545	0.979	0.982	0.973	1	0.891					
NCI-H1395						0.568	0.576	0.914	0.447	0.395	0.457	0.427	0.443	0.435	0.456	0.432	0.47	0.385	0.372	0.291
NCI-H1563	0.894	0.788	0.632	0.742	0.499	0.648	0.662	0.637	0.624	0.528						0.482	0.462	0.422	0.367	0.211
NCI-H1648											1.19	0.765	0.76	0.762	1.05					
NCI-H1703	0.31	0.378	0.318	0.337	0.154	0.258	0.243	0.239	0.284	0.221	0.535	0.531	0.334	0.538	0.422					
NCI-H1793						0.202	0.311	0.344	0.212	0.402	1.09	1	0.879	0.937	0.792	0.399	0.413	0.241	0.16	0.154
NCI-H1944						0.335	0.371	0.332		0.353	0.409	0.381	0.422	0.392	0.395	0.21	0.212	0.22	0.167	0.114
NCI-H2170						0.368	0.366	0.344	0.232	0.379	0.613	0.566	0.645	0.599	0.609	0.577	0.737	0.408	0.335	0.186
NCI-H2342											0.488	0.398	0.44	0.391	0.447	0.329	0.326	0.236	0.312	0.327
SK-MES-1						0.391	0.352	0.402	0.324	0.333	0.706	0.738	0.508	0.641	0.246	0.437	0.307	0.396	0.126	0.184
SW 900											0.785	0.872		0.923	1	0.51	0.492	0.462	0.0924	0.18
